In patent publication US6762205B1, “Phenyl sulfamate derivatives” (Teikoku Hormone Mfg. Co., Ltd., priority 1999, dated 2004):
Read-outs that look alike come from different tables or passages of the source.

How the values were obtained:
steroid sulfatase [1] = biological target: T1, steroid sulfatase (Rattus norvegicus, UniProt P15589); assay: In vivo inhibitory effect on steroid sulfatase (rat liver and uterus homogenates after 5 days of dosing); conditions: po, once a day for 5 days, female SD rats, 4 hours after final administration
T1 construct: the liver and the uterus were excised from each rat; from tissue; host or cells: rat liver and uterus homogenate (2,000 x g supernatant) after 5 days of dosing
T1 sequence (P15589 20-577): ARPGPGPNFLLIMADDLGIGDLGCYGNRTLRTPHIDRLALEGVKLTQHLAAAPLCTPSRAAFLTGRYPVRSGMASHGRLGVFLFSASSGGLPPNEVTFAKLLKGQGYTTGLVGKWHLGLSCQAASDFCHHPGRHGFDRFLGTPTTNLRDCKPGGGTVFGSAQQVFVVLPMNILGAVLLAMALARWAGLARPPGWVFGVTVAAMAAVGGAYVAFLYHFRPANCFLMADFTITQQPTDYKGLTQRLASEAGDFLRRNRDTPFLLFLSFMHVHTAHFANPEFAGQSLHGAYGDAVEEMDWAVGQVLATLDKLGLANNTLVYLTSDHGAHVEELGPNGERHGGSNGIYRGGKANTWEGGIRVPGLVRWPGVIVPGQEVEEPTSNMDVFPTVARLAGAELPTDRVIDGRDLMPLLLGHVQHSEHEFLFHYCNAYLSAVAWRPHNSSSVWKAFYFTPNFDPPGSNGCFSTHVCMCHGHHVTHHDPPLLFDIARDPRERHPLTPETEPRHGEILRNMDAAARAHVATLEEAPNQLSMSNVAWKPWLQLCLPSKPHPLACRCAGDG
Excerpt: (2) Measurement of an In vivo Inhibitory Effect on Steroid Sulfatase
A test compound was suspended in a 0.5% polyoxyethylene (20) sorbitan monooleate solution (Tween 80) and administered, once a day, to a group of 5 female SD strain rats (weighing 168-194 g) for 5 days.
Four hours after the final administration, all rats were sacrificed by ether anesthesia and dissected. Thus, the liver and the uterus were excised from each rat, washed once with cold phosphate-buffered saline (PBS, pH 7.4), and preserved at −70° C. or below. Each of the liver and the uterus was finely minced with scissors, and suspended in PBS containing 250 mM sucrose (5 ml/g tissue). Under cooling with ice, each suspension was homogenized with an Ultra-Turrax homogenizer. The resulting homogenate was centrifuged (at 4° C.) at 2,000×g for 30 minutes to remove nuclei and cell debris, and the protein concentration in this supernatant was measured according to the method of Bradford [Anal. Biochem. 72, 248-254(1976)].
The homogenate in an amount corresponding to a protein concentration of 100-500 μg/ml was mixed with [6,7-^3H]estrone 3-sulfate (with a specific activity of 49 Ci/mmol; from New England Nuclear, Boston, Mass., USA) in an amount corresponding to a substrate concentration of 20 μM. This mixture was diluted with PBS to a total volume of 1 ml, and incubated at 37° C. for 30 minutes. After incubation (1 ml), the steroid sulfatase activity was determined in the same manner as described above for the in vitro measurement (1).

steroid sulfatase [2] = biological target: T2, steroid sulfatase (Homo sapiens, UniProt P08842); assay: In vitro inhibitory effect on steroid sulfatase (intact MCF-7 cells, [3H]estrone 3-sulfate hydrolysis); format: cell-based; set-up: Six-well plates (9.4 cm^2/well) were inoculated with intact MCF-7 human breast cancer cells; endogenous in cells; host or cells: MCF-7 human breast cancer cells; conditions: MCF7; 3 × 10^−9 M test compound; intact MCF-7 human breast cancer cells; 37° C., 20 hours; read-out: Inhibitory rate (3 × 10^−9 M. %)
T2 sequence (P08842 22-583): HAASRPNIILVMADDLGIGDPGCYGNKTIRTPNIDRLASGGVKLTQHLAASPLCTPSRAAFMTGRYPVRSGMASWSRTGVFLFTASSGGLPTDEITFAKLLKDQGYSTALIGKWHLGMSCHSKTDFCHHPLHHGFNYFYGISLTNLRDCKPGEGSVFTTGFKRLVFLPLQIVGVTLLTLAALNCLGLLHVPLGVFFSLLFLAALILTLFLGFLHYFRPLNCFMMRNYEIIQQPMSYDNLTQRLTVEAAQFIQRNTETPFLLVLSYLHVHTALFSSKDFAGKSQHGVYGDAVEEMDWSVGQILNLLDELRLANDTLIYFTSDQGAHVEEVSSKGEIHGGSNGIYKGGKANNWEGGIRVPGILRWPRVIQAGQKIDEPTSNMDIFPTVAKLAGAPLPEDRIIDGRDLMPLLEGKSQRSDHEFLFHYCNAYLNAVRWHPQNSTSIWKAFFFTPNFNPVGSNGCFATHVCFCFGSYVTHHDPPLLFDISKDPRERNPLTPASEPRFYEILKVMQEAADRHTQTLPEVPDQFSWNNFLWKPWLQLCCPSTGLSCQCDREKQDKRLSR
Procedure: (1) Measurement of an In vitro Inhibitory Effect on Steroid Sulfatase
Six-well plates (9.4 cm^2/well) were inoculated with intact MCF-7 human breast cancer cells at a density of about 1×10^5 cells/well. Using Dulbecco's modified Eagle medium (DMEM) containing 10 mM HEPES, 5% fetal bovine serum, 0.011% sodium pyruvate and 0.37% sodium bicarbonate, the cells were grown to 80% confluency.
The plates were washed with Earle's balanced salt solution (EBSS from Life Technologies Inc., Grand Island, N.Y., USA). Then, serum-free DMEM (2 ml) containing 4 pmol (4.4×10^5 dpm) of [6,7-^3H]estrone 3-sulfate (with a specific activity of 49 Ci/mmol; from New England Nuclear, Boston, Mass., USA), together with a test compound, was placed on each plate and incubated at 37° C. for 20 hours. After incubation, the plate was cooled, and the medium (1 ml) was pipetted into a separating tube containing [4-^14C]estrone (6×10^3 dpm) (with a specific activity of 52.5 mCi/mmol; from New England Nuclear, Boston, Mass., USA). This mixture, together with toluene (4 ml), was vigorously shaken for 30 seconds. It was shown by experiment that more than 90% of [4-^14C]estrone was removed from the aqueous layer by this treatment. A portion (2 ml) of the organic phase was taken, and the ^3H and ^14C contents thereof were measured by scintillation spectrometry. Then, the amount of estrone 3-sulfate hydrolyzed was calculated from the total 3H count (corrected for the volumes of the medium used and the organic phase, and for the recovery of the [^14C]estrone added) and the specific activity of the substrate.

steroid sulfatase [3] = biological target: T2, steroid sulfatase; conditions: qualitative statement on prior art compounds; cited from earlier work
[4] = qualitative statement on prior art compounds; cited from earlier work
[5] = liver, read-out: Inhibitory rate (0.5 mg/kg, p.o., %) Liver
[6] = uterus, read-out: Inhibitory rate (0.5 mg/kg, p.o., %) Uterus

Structure (SMILES)	inhibition at 0.5 mg/kg (steroid sulfatase [1]; [5])	inhibition at 0.5 mg/kg (steroid sulfatase [1]; [6])	inhibition at 0.003 µM (steroid sulfatase [2])	inhibitory effect on steroid sulfatase (steroid sulfatase [3])	estrogenic action [4]
N#Cc1ccc(N(Cc2ccc(OS(N)(=O)=O)cc2)n2cnnc2)cc1 [Example 38, 4-[N-(4-cyano-phenyl)-N-(1,2,4-triazol-4-yl)aminomethyl]phenyl sulfamate]	85.3%	79%			
N#Cc1ccccc1-c1ccc(OS(N)(=O)=O)cc1 [Example 3, 2′-cyanobiphenyl-4-yl sulfamate]	95.4%	93.8%	76%		
NS(=O)(=O)Oc1ccc(-c2ccc([N+](=O)[O-])cc2[N+](=O)[O-])cc1 [Example 23, 2′,4′-dinitrobiphenyl-4-yl sulfamate]			67%		
NS(=O)(=O)Oc1ccc(-c2ccccc2[N+](=O)[O-])cc1 [Example 1, 2′-nitrobiphenyl-4-yl sulfamate]	91.2%	94.9%			
C[C@]12CC[C@@H]3c4ccc(OS(N)(=O)=O)cc4CC[C@H]3[C@@H]1CCC2=O [EMATE, estrone 3-sulfamate]				powerful inhibitory effect	powerful estrogenic action
Cc1cc(=O)oc2cc(OS(N)(=O)=O)ccc12 [COUMATE, 4-methylcoumarin 7-sulfamate]				weak	do not show an estrogenic action
CCCCCCCCCCCCCC(=O)NCCc1ccc(OS(N)(=O)=O)cc1 [DU-14, 4-(2-myristoylaminoethyl)phenyl sulfamate]				weak	do not show an estrogenic action

The next lines start with results.

inhibition at 0.5 mg/kg (steroid sulfatase [1]; [5])	inhibition at 0.5 mg/kg (steroid sulfatase [1]; [6])	inhibition at 0.003 µM (steroid sulfatase [2])	Structure (SMILES)	inhibitory effect on steroid sulfatase (steroid sulfatase [3])	estrogenic action [4]
97%	100%		NS(=O)(=O)Oc1ccc(-c2ccc([N+](=O)[O-])cc2)cc1 [Example 16, 4′-nitrobiphenyl-4-yl sulfamate]		
99.5%	100%	87%	N#Cc1cc([N+](=O)[O-])ccc1-c1ccc(OS(N)(=O)=O)cc1 [Example 25, 2′-cyano-4′-nitrobiphenyl-4-yl sulfamate]		
		94%	N#Cc1ccc(-c2ccc(OS(N)(=O)=O)cc2)c(C#N)c1 [Example 27, 2′,4′-dicyanobiphenyl-4-yl sulfamate]		
97.2%	97.6%		NS(=O)(=O)Oc1ccc(-c2ccc(OS(N)(=O)=O)cc2)cc1 [Example 21, biphenyl-4,4′-diyl disulfamate]		
